These compounds were tested against Wee1-like protein kinase (Homo sapiens, UniProt P30291) (assay: Wee1 Enzymatic Activity Inhibition Assay).
Experimental: The enzymatic assay used to determine activity was a Luminescence assay using a Microplate Reader (BMG, ClarioStar Plus). The enzymatic reaction was carried out in assay buffer (40 mM TRIS-HCl pH 7.4-7.6, 20 mM MgCl2, 0.05 mM DTT, 0.1 mg/ml BSA, 5 mM MnCl2). The compounds were dispensed on a 384 well Diamond Well Plate (Axigen, Cat #P-384-120SQ-C-S) using the Biomek FX liquid handling system at 100× solutions of compounds in DMSO. 2×Wee1-PolyE4Y1 mix (final concentration 0.85 ng/μl of Wee1 and 0.2 μg/μl of PolyE4Y1) was prepared in 1× Assay buffer and 5.5 μl of mixture per well was added into 384w white Reaction plate with NBS (Corning, Cat #4513). 5.5 μl of PolyE4Y1 substrate w/o Wee1 in 1× buffer was used for negative control. Plates were centrifuged for 1 min at 100 g. Next step the Compounds were added to Reaction plate using Biomek station via following steps: 1 μl of 100× compounds (in DMSO) were mixed thoroughly with 49 μl of 2×10 μM ATP in Assay Buffer, then 5.5 μl of this mixture was added to Reaction plate with 5.5 μl of Wee1-PolyE4Y1 mix. Plates were centrifuged for 1 min at 100 g and incubated for 1 h at room temperature. Next 3 μL of ADP-Glo reagent (Promega, ADP-Glo™ Kinase Assay, Cat #V9102) per well was added. Plates were incubated for 30 minutes at room temperature. Then 6 μL of Kinase detection reagent (Promega, ADP-Glo™ Kinase Assay, Cat #V9102) per well was added and the Luminescence was measured using Microplate Reader.

Sequence of Wee1-like protein kinase (P30291 whole entry): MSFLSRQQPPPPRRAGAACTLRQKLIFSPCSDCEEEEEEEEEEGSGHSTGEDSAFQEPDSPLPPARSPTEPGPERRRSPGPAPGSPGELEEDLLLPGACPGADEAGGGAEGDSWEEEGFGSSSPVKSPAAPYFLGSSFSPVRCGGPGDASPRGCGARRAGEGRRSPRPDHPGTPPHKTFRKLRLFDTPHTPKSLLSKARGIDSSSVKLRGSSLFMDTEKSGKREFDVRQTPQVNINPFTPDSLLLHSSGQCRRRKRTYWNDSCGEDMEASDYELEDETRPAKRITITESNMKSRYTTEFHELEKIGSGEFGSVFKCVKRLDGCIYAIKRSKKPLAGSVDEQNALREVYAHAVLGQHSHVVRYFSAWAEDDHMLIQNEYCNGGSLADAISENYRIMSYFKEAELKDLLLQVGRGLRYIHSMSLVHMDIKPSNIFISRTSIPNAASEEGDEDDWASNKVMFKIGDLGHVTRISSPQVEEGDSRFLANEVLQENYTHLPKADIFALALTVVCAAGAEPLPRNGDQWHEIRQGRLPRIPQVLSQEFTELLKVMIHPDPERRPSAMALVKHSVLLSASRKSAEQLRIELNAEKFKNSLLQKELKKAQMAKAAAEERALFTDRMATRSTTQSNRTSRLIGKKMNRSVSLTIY

SMILES | EC50
Cn1c2nc(Nc3ccc(N4CCN(C(=O)c5cc(Cn6c(=O)[nH]c(=O)c7c(F)cccc76)ccc5F)CC4)cc3)ncc2c(=O)n1-c1ccccn1 [US20250270212, Compound 17] | > 1000 nM
Cn1c2nc(Nc3ccc(N4CCN(C(=O)c5cc(Cc6n[nH]c(=O)c7ccccc67)ccc5F)CC4)cc3)ncc2c(=O)n1-c1ccccn1 [US20250270212, Compound 12] | > 1000 nM
C=CCn1c(=O)c2cnc(Nc3ccc(N4CCN(C(=O)c5cc(Cc6n[nH]c(=O)c7ccccc67)ccc5F)CC4)cc3)nc2n1-c1cccc(C(C)(C)O)c1 [US20250270212, Compound 1] | < 10 nM
Cn1c(=O)c2cnc(N3CCN(C(=O)c4cc(Cc5n[nH]c(=O)c6ccccc56)ccc4F)CC3)nc2n1-c1ccccn1 [US20250270212, Compound 5] | > 1000 nM
C=CCn1c(=O)c2cnc(N3CCN(C(=O)c4cc(Cc5n[nH]c(=O)c6ccccc56)ccc4F)CC3)nc2n1-c1cccc(C(C)(C)O)n1 [US20250270212, Compound 2] | > 1000 nM
Cn1c(=O)c2cnc(Nc3ccc(N4CCN(Cc5cc(Cc6n[nH]c(=O)c7ccccc67)ccc5F)CC4)cc3)nc2n1-c1cccc(C(C)(C)O)n1 [US20250270212, Compound 8] | < 10 nM
C=CCn1c(=O)c2cnc(NCCNC(=O)c3cc(Cc4n[nH]c(=O)c5ccccc45)ccc3F)nc2n1-c1cccc(C(C)(C)O)n1 [US20250270212, Compound 6] | > 1000 nM
Cn1c(=O)c2cnc(Nc3ccc(N4CCN(C(=O)c5cc(Cc6n[nH]c(=O)c7ccccc67)ccc5F)CC4)cc3)nc2n1-c1cccc(C(C)(C)O)n1 [US20250270212, Compound 7] | < 10 nM
C=CCn1c(=O)c2cnc(NC3CCN(C(=O)c4cc(Cc5n[nH]c(=O)c6ccccc56)ccc4F)CC3)nc2n1-c1cccc(C(C)(C)O)n1 [US20250270212, Compound 4] | > 1000 nM

The remaining lines, values ahead:

EC50 | SMILES
> 1000 nM | C=CCn1c(=O)c2cnc(NC3CCN(Cc4ccc(-c5[nH]c6cc(F)cc7c6c5CCNC7=O)cc4)CC3)nc2n1-c1cccc(C(C)(C)O)n1 [US20250270212, Compound 47]
< 10 nM | C=CCn1c(=O)c2cnc(Nc3ccc(N4CCN(Cc5cc(Cn6c(=O)[nH]c(=O)c7c(F)cccc76)ccc5F)CC4)cc3)nc2n1-c1cccc(C(C)(C)O)n1 [US20250270212, Compound 34]
< 10 nM | C=CCn1c(=O)c2cnc(Nc3ccc(N4CCN(C(=O)c5cc(Cn6c(=O)[nH]c(=O)c7c(F)cccc76)ccc5F)CC4)cc3)nc2n1-c1ccccn1 [US20250270212, Compound 28]
< 10 nM | Cn1c(=O)c2cnc(Nc3ccc(N4CCCC(c5nc6cccc(C(N)=O)c6[nH]5)C4)cc3)nc2n1-c1ccccn1 (stereo unspecified) [US20250270212, Compound 96]
< 10 nM | C=CCn1c(=O)c2cnc(Nc3ccc(N4CCN(Cc5ccc(-c6[nH]c7cc(F)cc8c7c6CCNC8=O)cc5)CC4)cc3)nc2n1-c1ccccn1 [US20250270212, Compound 39]
< 10 nM | C=CCn1c(=O)c2cnc(Nc3ccc(N4CCN(C(=O)c5cc(Cn6c(=O)[nH]c(=O)c7c(F)cccc76)ccc5F)CC4)cc3)nc2n1-c1cccc(C(C)(C)O)n1 [US20250270212, Compound 16]
> 1000 nM | Cn1c2nc(Nc3ccc(N4CCC(c5nc6cccc(C(N)=O)c6[nH]5)CC4)cc3)ncc2c(=O)n1-c1ccccn1 [US20250270212, Compound 91]

Reference: BindingDB's records for patent US20250270212 (Padarn Therapeutics, 2025)
